Patent publication US20110223222A1, “Antiperspirant Compositions and Methods for Reducing Perspiration in Humans” (priority 2008, published 2011)

Experiments:
[1] = test system: axillae of healthy female volunteers; assay: Antiperspirant efficacy, FDA hotroom protocol, gravimetric sweat collection; type: in vivo, human; details: after four days of once-daily topical treatment, D4 vs D1 baseline
Method: The antiperspirant efficacy and safety of investigated compounds were tested pursuant to protocol prescribed by the Food and Drug Administration, […] (Guidelines for Effectiveness Testing of OTC Antiperspirant Drug Products, 2004). The clinical study further conformed to Normative Resolution 196/96, CN/MS. The clinical study was divided into three tests and conducted with among at least thirty healthy female volunteers per test. They were between the ages of 18 and 50. The study was single-center, randomized, controlled, double blind assessment of the safety, tolerability and antiperspirant efficacy of TRPM8 agonists when applied to the axillae of healthy female volunteers. Before proceeding with the testing, all the volunteers were submitted to a “rest period” of 17 days, according to the FDA protocol. During this period, a placebo control formulation with no antiperspirancy effect was applied twice a day to both axillae. Treatments were applied once daily for four consecutive days (numbered D1 to D4). On D1, the baseline perspiration rate was determined before the antiperspirant formulations were applied. All the volunteers remained under hotroom conditions for a 40-minute warm-up period, divided into 2 periods of 20 minutes each. The term “hotroom condition” is the controlled environment (temperatures at 38° C.±1° C., and relative humidity of 35%±5%) established by the FDA standard protocol to thermally induce volunteer's perspiration. Cotton absorbent pads (Sussex®) were preweighed (P1) and placed in both axillae of each volunteer. At the end of the warm-up period, the perspiration collected on the absorbent pads was again weighed (P2) and the perspiration rates were obtained through gravimetric measurements (according to the formula P2-P1). According to FDA protocol, volunteers must produce at least 100 milligrams of sweat from the placebo control axilla in a 20-minute collection in the controlled environment, and at least one volunteer must produce more than 600 milligrams of sweat. Commercial menthol (YSC), Mentha essential oil (YSC) and Eucalyptus essential oil (Inter-Link) were presented as components of the antiperspirant formulations as described in the Example 1. Both commercial Mentha and Eucalyptus essential oils, which present menthol and eucalyptol, respectively, as the major components, were submitted to a GC-MS analysis in order to determine the appropriate amount of essential oils to be used to manufacture the antiperspirant compositions. In each treatment group as listed below, one of the antiperspirant formulations were applied to one axilla of the volunteers. […] Safety and tolerance were measured by assessment of visual effects and dermal irritancy, and subjective assessment of tolerance. […]

[2] = test system: axilla odor of volunteers; assay: Evaluation of deodorant effect (sniff test); type: in vivo, human; details: at D4 vs D1, odor score 0-10 by two trained judges
Method: The volunteers were submitted to a “rest period” as described previously in Example 2. The odor was evaluated for the volunteers at D1 and at D4. At D1 the evaluation was made before the application of the test formulations, after the 20-minute warm-up period, and only the volunteers with starting values not less than 2 were included in the test. The odor evaluation scoring system was based on a range of axilla odor from no malodor (0), to moderate malodor (5), to extremely strong malodor (10). Two trained judges, familiar with the procedures and rating system, subjectively made the odor measurements of both axillae of each volunteer. The data correspond to the individual subject scores by the two trained judges and to the individual average.

Structure (SMILES): CC1CCC(C(C)C)C(O)C1 (centres unmarked) [menthol]
- reduction in sweat production ([1]; Group 1, one hour after application): 61.4%±23.1
- reduction in sweat production ([1]; Group 2, two hours after application): 63.7%±21.8
- reduction in sweat production ([1]; Group 3, four hours after application): 63.7%±21.8
- reduction in sweat production ([1]; Group 3, four hours after application, listed as menthol (YSC)): 75%±12.1
- improvement in axilla odor [2]: 6.4%±25.3
